# From US20220305052A1, “METERED DOSE FOR DISORDERS IN OR AROUND THE EYE” (Azura Ophthalmics Ltd., priority 2019, published 2022)
# Where two headings read alike, the source gives them in different places.
# How the values were obtained:
# lower eyelid = settings: rabbit, in vivo
# Excerpt: On a subsequent study to Example 6, concentrations ranging from 0.5 wt. % to 2.5 wt. % were used on New-Zealand rabbits, once daily to twice weekly for 28 days.
# [1] = 5 μL, twice-weekly or once-daily, 3 months
# [2] = system: lower eyelid of the rabbits; settings: rabbit, in vivo
# Procedure: The composition is prepared by the combination of selenium disulfide (SeS2) in combination with Petrolatum base (and in the absence of surface acting agents). Compositions comprising various concentrations of selenium disulfide are prepared, such as 0.1 wt. %, 0.5 wt. %, 1 wt. %, 1.5 wt. %, 2 wt. %, and 2.5 wt. %.
# Various compositions prepared as described above are administered to the eye or eyelid (e.g., margin thereof) of albino rabbits. Various compositions are administered to distinct cohorts using various treatment protocols, such as based on frequency of administration (e.g., once daily, twice daily, every other day, and once weekly) and volume of administration (e.g., <25 μL or >25 μL per administration). Compositions lacking selenium disulfide are administered to a separate cohort to establish a control.
# Albino rabbits are evaluated, and an accurate volume of the composition is ejected from a device (e.g., micropipette) and is delivered to the lower eyelid of the rabbits (FIG. 2). […] In one example, the volume is ˜25 μL (equivalent to 20 mg in weight). The rabbits are examined daily.
# [3] = system: seborrheic blepharitis patients; settings: cited from earlier work
# rabbit dermis = settings: in vivo; cited from earlier work
# [4] = system: lower eyelid of the right eye
# Procedure: The eye was treated with lubricants and local NSAID, and the keratitis resolved within 48 hours.
smiles,measurement,setting,value
"S=[Se]=S [SeS2, selenium disulfide]",ophthalmic observations compared with Example 6,lower eyelid,safer
same,safety and tolerability (independent Data Review Committee),"[1]; 0.1 wt. %, nine patients",safe and well tolerated
same,safety and tolerability (independent Data Review Committee),"[1]; 0.5 wt. %, ten patients",safe and well tolerated
same,safety and tolerability (independent Data Review Committee),"[1]; 1 wt. %, nine patients",safe and well tolerated
same,animals with corneal staining,[2],5/6
same,clinical or microscopic findings,[2],no clinical or microscopic findings
same,"signs of keratitis, including red and swollen eyelids",[2],all animals showed signs of keratitis
same,tolerability of ointment on the lids,"[3]; 0.5 weight percent ointment (Abbott), all patients complained of burning of the conjunctiva (Rychener)",too strong
same,epithelial keratitis,"[3]; human, in vivo",6 cases
same,epithelial keratitis persisting as long as a week,"[3]; human, in vivo",1 cases
same,epithelial keratitis persisting for a matter of days,"[3]; human, in vivo",2 cases
same,"epithelial keratitis, transient","[3]; human, in vivo",4 cases
same,"keratitis, conjunctivitis with erythematous and swollen lids","[3]; human, in vivo",Two
same,patients developing moderately severe conjunctivitis,"[3]; human, in vivo",1%
same,side effect across the studies,"[3]; human, in vivo",self-limiting keratitis
same,dermal irritation,rabbit dermis,did not appear to be irritant to rabbit dermis
same,time until pain was reported,"[4]; 2.5 wt. % SeS2 with petrolatum, 25 μL (20 mg), one healthy person",About 4 hours
same,finding on clinical examination,"[4]; 2.5 wt. % SeS2 with petrolatum, 25 μL (20 mg), multiple punctate over the center exposed part of the cornea",keratitis was observed
same,time to resolution of keratitis,"[4]; 2.5 wt. %, 25 μL, eye treated with lubricants and local NSAID",≤ 48 h
